Test results as given in ChEMBL document CHEMBL1201862, “PubChem BioAssay data set” (2004).
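Five concentrations, 48 hours, 96-well plates. GI50 is the concentration that inhibits growth by half.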 Active and inactive are the calls of the source. Rule as the data show it: active = GI50 up to about 1.1 µM and inactive = higher.

Assays:
Assay in all cases: inhibition of tumour cell growth, NCI panel, 48 h
K562 = tested on: K562
MDA-MB-435 = tested on: MDA-MB-435
MDA-N = tested on: MDA-N
SF-539 = tested on: SF-539
UO-31 = tested on: UO-31
RXF 393 = tested on: RXF 393
SNB-19 = tested on: SNB-19
RPMI-8226 = tested on: RPMI-8226
KM12 = tested on: KM12
ACHN = tested on: ACHN
LOX IMVI = tested on: LOX IMVI
SW-620 = tested on: SW-620
T47D = tested on: T47D
OVCAR-5 = tested on: OVCAR-5
NCI/ADR-RES = tested on: NCI/ADR-RES
SF-295 = tested on: SF-295
SR = tested on: SR
DU-145 = tested on: DU-145
HT-29 = tested on: HT-29
CCRF-CEM = tested on: CCRF-CEM
HCC 2998 = tested on: HCC 2998
A549 = tested on: A549
HOP-92 = tested on: HOP-92
COLO 205 = tested on: COLO 205
OVCAR-3 = tested on: OVCAR-3
A498 = tested on: A498
CAKI-1 = tested on: CAKI-1
HCT-116 = tested on: HCT-116
U-251 = tested on: U-251
M14 = tested on: M14
MCF7 = tested on: MCF7
SN12C = tested on: SN12C
OVCAR-4 = tested on: OVCAR-4
NCI-H23 = tested on: NCI-H23
NCI-H460 = tested on: NCI-H460
SK-MEL-28 = tested on: SK-MEL-28
SK-MEL-5 = tested on: SK-MEL-5
UACC-62 = tested on: UACC-62
UACC-257 = tested on: UACC-257
HOP-62 = tested on: HOP-62
MDA-MB-231 = tested on: MDA-MB-231
PC-3 = tested on: PC-3
OVCAR-8 = tested on: OVCAR-8
SNB-75 = tested on: SNB-75
IGROV-1 = tested on: IGROV-1
EKVX = tested on: EKVX
BT-549 = tested on: BT-549
HCT-15 = tested on: HCT-15
SK-MEL-2 = tested on: SK-MEL-2
NCI-H226 = tested on: NCI-H226
MOLT-4 = tested on: MOLT-4
786-0 = tested on: 786-0
Malme-3M = tested on: Malme-3M
HL-60 = tested on: HL-60
SF-268 = tested on: SF-268
TK-10 = tested on: TK-10
NCI-H522 = tested on: NCI-H522
Hs-578T = tested on: Hs-578T
SK-OV-3 = tested on: SK-OV-3

Structure (SMILES): C=CCC1(O)CC(n2cc(C)c(=O)[nH]c2=O)OC1CO[Si](C)(C)C(C)(C)C (stereo unspecified)
- GI50 (K562): 61.4 µM (inactive)
- GI50 (MDA-MB-435): 41.5 µM (inactive)
- GI50 (MDA-N): 51.6 µM (inactive)
- GI50 (SF-539): 53.5 µM (inactive)
- GI50 (UO-31): 42.4 µM (inactive)
- GI50 (RXF 393): 29 µM (inactive)
- GI50 (SNB-19): > 100 µM (inactive)
- GI50 (RPMI-8226): 37.4 µM (inactive)
- GI50 (KM12): 45.3 µM (inactive)
- GI50 (ACHN): 45.6 µM (inactive)
- GI50 (LOX IMVI): 31.2 µM (inactive)
- GI50 (SW-620): 73.1 µM (inactive)
- GI50 (T47D): 55.2 µM (inactive)
- GI50 (OVCAR-5): 61.9 µM (inactive)
- GI50 (NCI/ADR-RES): 43.1 µM (inactive)
- GI50 (SF-295): 42.9 µM (inactive)
- GI50 (SR): 45 µM (inactive)
- GI50 (DU-145): 45.8 µM (inactive)
- GI50 (HT-29): 40.9 µM (inactive)
- GI50 (CCRF-CEM): 43.8 µM (inactive)
- GI50 (HCC 2998): 24.5 µM (inactive)
- GI50 (A549): 35.5 µM (inactive)
- GI50 (HOP-92): 35.5 µM (inactive)
- GI50 (COLO 205): 21.6 µM (inactive)
- GI50 (OVCAR-3): 39 µM (inactive)
- GI50 (A498): 37.2 µM (inactive)
- GI50 (CAKI-1): 54.6 µM (inactive)
- GI50 (HCT-116): 42 µM (inactive)
- GI50 (U-251): 75.3 µM (inactive)
- GI50 (M14): 46.7 µM (inactive)
- GI50 (MCF7): 47.8 µM (inactive)
- GI50 (SN12C): 31.6 µM (inactive)
- GI50 (OVCAR-4): 47 µM (inactive)
- GI50 (NCI-H23): 44 µM (inactive)
- GI50 (NCI-H460): 38.7 µM (inactive)
- GI50 (SK-MEL-28): 68.9 µM (inactive)
- GI50 (SK-MEL-5): 34.4 µM (inactive)
- GI50 (UACC-62): 35.9 µM (inactive)
- GI50 (UACC-257): 52.4 µM (inactive)
- GI50 (HOP-62): > 100 µM (inactive)
- GI50 (MDA-MB-231): 64.6 µM (inactive)
- GI50 (PC-3): 36.5 µM (inactive)
- GI50 (OVCAR-8): 42.9 µM (inactive)
- GI50 (SNB-75): 38 µM (inactive)
- GI50 (IGROV-1): 46.9 µM (inactive)
- GI50 (EKVX): 36.7 µM (inactive)
- GI50 (BT-549): 46.3 µM (inactive)
- GI50 (HCT-15): 44.4 µM
- GI50 (SK-MEL-2): 22.3 µM (inactive)
- GI50 (NCI-H226): 49.5 µM (inactive)
- GI50 (MOLT-4): 57.3 µM (inactive)
- GI50 (786-0): 44.1 µM (inactive)

Structure (SMILES): O=C(Nc1nc(C23CC4CC(CC(C4)C2)C3)cs1)c1cc2ccc(O)cc2oc1=O
- GI50 (K562): 4.88 µM (inactive)
- GI50 (MDA-MB-435): 8.38 µM (inactive)
- GI50 (Malme-3M): 12 µM (inactive)
- GI50 (MDA-N): 14 µM (inactive)
- GI50 (HL-60): 10.3 µM (inactive)
- GI50 (SF-539): 17.1 µM (inactive)
- GI50 (UO-31): 7.36 µM (inactive)
- GI50 (RXF 393): 16.4 µM (inactive)
- GI50 (SNB-19): 18.4 µM (inactive)
- GI50 (SF-268): 16.9 µM (inactive)
- GI50 (TK-10): 26.8 µM (inactive)
- GI50 (RPMI-8226): 5.35 µM (inactive)
- GI50 (KM12): 6.05 µM (inactive)
- GI50 (ACHN): 10.6 µM (inactive)
- GI50 (LOX IMVI): 8.07 µM (inactive)
- GI50 (SW-620): 10.3 µM (inactive)
- GI50 (OVCAR-5): 21 µM (inactive)
- GI50 (NCI/ADR-RES): 11.1 µM (inactive)
- GI50 (SF-295): 16.5 µM (inactive)
- GI50 (DU-145): 18.3 µM (inactive)
- GI50 (HT-29): 14.4 µM (inactive)
- GI50 (CCRF-CEM): 14.7 µM (inactive)
- GI50 (HCC 2998): 10.6 µM (inactive)
- GI50 (NCI-H522): 10.2 µM (inactive)
- GI50 (A549): 15.9 µM (inactive)
- GI50 (HOP-92): 3.7 µM (inactive)
- GI50 (COLO 205): 5.36 µM (inactive)
- GI50 (OVCAR-3): 13.8 µM (inactive)
- GI50 (A498): 10.7 µM (inactive)
- GI50 (CAKI-1): 19.6 µM (inactive)
- GI50 (HCT-116): 10.1 µM (inactive)
- GI50 (U-251): 12.8 µM (inactive)
- GI50 (MCF7): 14.1 µM (inactive)
- GI50 (SN12C): 11.2 µM (inactive)
- GI50 (OVCAR-4): 8.26 µM (inactive)
- GI50 (NCI-H23): 11.7 µM (inactive)
- GI50 (NCI-H460): 6.5 µM (inactive)
- GI50 (SK-MEL-28): 15.1 µM (inactive)
- GI50 (SK-MEL-5): 13.7 µM (inactive)
- GI50 (UACC-257): 15.6 µM (inactive)
- GI50 (HOP-62): 15.2 µM (inactive)
- GI50 (MDA-MB-231): 6.04 µM (inactive)
- GI50 (PC-3): 13.5 µM (inactive)
- GI50 (OVCAR-8): 6.67 µM (inactive)
- GI50 (IGROV-1): 7.41 µM (inactive)
- GI50 (EKVX): 13.2 µM (inactive)
- GI50 (BT-549): > 10 µM (inactive)
- GI50 (HCT-15): 4.46 µM
- GI50 (NCI-H226): 18 µM (inactive)
- GI50 (Hs-578T): 14.5 µM (inactive)
- GI50 (MOLT-4): 5.9 µM (inactive)
- GI50 (786-0): 11.6 µM (inactive)

Structure (SMILES): Oc1c(Cl)c(Cl)c(O)c2c1CCCC2
- GI50 (MDA-MB-435): 16.4 µM (inactive)
- GI50 (Malme-3M): 2.84 µM (inactive)
- GI50 (MDA-N): 14.3 µM (inactive)
- GI50 (SF-539): 8.69 µM (inactive)
- GI50 (UO-31): 2.36 µM (inactive)
- GI50 (RXF 393): 10.6 µM (inactive)
- GI50 (SNB-19): 16 µM (inactive)
- GI50 (SF-268): 11.6 µM (inactive)
- GI50 (TK-10): 3.37 µM (inactive)
- GI50 (RPMI-8226): 2.72 µM (inactive)
- GI50 (KM12): 12.4 µM (inactive)
- GI50 (ACHN): 1.75 µM (inactive)
- GI50 (LOX IMVI): 3.48 µM (inactive)
- GI50 (SW-620): 1.99 µM (inactive)
- GI50 (NCI/ADR-RES): 15.5 µM (inactive)
- GI50 (SF-295): 18.5 µM (inactive)
- GI50 (HT-29): 19.1 µM (inactive)
- GI50 (CCRF-CEM): 2.08 µM (inactive)
- GI50 (HCC 2998): 14.3 µM (inactive)
- GI50 (NCI-H522): 1.97 µM (inactive)
- GI50 (A549): 21 µM (inactive)
- GI50 (HOP-92): 1.85 µM (inactive)
- GI50 (COLO 205): 1.83 µM (inactive)
- GI50 (A498): 19.1 µM (inactive)
- GI50 (HCT-116): 1.51 µM (inactive)
- GI50 (U-251): 17.5 µM (inactive)
- GI50 (M14): 15.5 µM (inactive)
- GI50 (MCF7): 2.13 µM (inactive)
- GI50 (SN12C): 14.7 µM (inactive)
- GI50 (NCI-H23): 18.4 µM (inactive)
- GI50 (NCI-H460): 15.1 µM (inactive)
- GI50 (SK-MEL-28): 13.6 µM (inactive)
- GI50 (SK-MEL-5): 13 µM (inactive)
- GI50 (UACC-62): 13.4 µM (inactive)
- GI50 (UACC-257): 16.8 µM (inactive)
- GI50 (SK-OV-3): 14.2 µM (inactive)
- GI50 (HOP-62): 25.4 µM (inactive)
- GI50 (MDA-MB-231): 15.4 µM (inactive)
- GI50 (PC-3): 17.7 µM (inactive)
- GI50 (OVCAR-8): 18.7 µM (inactive)
- GI50 (EKVX): 7.85 µM (inactive)
- GI50 (BT-549): 14.8 µM (inactive)
- GI50 (HCT-15): 12.9 µM
- GI50 (SK-MEL-2): 19.7 µM (inactive)
- GI50 (NCI-H226): 1.88 µM (inactive)
- GI50 (Hs-578T): 14.6 µM (inactive)
- GI50 (786-0): 1.93 µM (inactive)
